IC50 data for 3 compounds are collected here from ChEMBL document CHEMBL5725466, “N-cyanomethylamides as inhibitors of janus kinase” (2017).

The term IC50 denotes the concentration needed to halve the response being measured.

In assay [1] the target is Tyrosine-protein kinase JAK1 (Homo sapiens, UniProt P23458). Briefly: (§1) In Vitro Assay: NCEs were screened using in vitro JAK (1, 2 and 3) kinase assay on ADP Glo platform (Promega). Fixed amount of recombinant purified human JAK (25 ng of JAK1 and 10 ng of JAK2 and JAK3 per reaction, from Life Technologies Ltd) were incubated with increasing concentration of NCEs in 1× kinase reaction buffer (40 mM Tris-Cl, pH7.5, 20 mM MgCl2, 0.1 mg/ml BSA and 50 μM DTT). Enzymatic reaction was initiated by adding a substrate cocktail containing 50 μM of ATP (final concentration) and 5 μg for JAK1 and 2.5 μg for JAK2 and JAK3 of polyGln4Tyr1 (Signal Chem) in total 25 μl of reaction in 96 well plate. The reaction was incubated at room temperature for 1 hr.After 1 hr of incubation equal volume (25 μl per reaction) of ADP Glo was added and incubated at room temperature for 40 min.This was followed by addition of kinase detection reagent (50 μl per reaction) and incubation at room temperature for 30 min. Finally, plate was read for luminescence at an integration time of 500 millisecond per well.
Chain of Tyrosine-protein kinase JAK1 (P23458 whole entry): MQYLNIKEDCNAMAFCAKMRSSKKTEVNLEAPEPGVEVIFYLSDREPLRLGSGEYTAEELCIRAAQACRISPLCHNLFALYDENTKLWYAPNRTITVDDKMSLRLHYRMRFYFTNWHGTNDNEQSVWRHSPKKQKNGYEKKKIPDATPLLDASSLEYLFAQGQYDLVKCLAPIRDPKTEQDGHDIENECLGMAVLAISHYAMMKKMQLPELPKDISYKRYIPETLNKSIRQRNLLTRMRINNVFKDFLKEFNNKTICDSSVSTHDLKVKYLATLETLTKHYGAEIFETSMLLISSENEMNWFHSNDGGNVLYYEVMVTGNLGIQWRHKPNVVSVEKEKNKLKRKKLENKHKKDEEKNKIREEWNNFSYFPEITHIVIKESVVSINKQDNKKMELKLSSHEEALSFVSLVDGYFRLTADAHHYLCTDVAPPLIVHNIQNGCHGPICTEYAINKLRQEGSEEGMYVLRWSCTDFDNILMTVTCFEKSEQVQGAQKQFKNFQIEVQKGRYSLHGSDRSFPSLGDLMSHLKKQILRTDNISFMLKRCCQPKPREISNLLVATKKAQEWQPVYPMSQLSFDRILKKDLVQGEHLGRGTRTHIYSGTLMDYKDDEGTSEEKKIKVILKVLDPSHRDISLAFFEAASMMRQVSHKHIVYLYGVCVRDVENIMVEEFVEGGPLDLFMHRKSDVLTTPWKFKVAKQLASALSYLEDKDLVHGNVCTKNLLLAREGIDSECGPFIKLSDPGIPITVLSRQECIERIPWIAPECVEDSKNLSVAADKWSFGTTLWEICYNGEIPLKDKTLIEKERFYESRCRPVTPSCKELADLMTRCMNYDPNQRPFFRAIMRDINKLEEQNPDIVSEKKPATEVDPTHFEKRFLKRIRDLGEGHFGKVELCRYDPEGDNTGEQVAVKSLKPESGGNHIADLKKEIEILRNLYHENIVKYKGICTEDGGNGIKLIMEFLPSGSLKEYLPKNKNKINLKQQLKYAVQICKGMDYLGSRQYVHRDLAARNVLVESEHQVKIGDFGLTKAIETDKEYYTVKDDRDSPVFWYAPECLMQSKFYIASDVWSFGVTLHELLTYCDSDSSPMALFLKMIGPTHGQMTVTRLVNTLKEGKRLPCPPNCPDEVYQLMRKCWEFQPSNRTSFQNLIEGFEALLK

Assay [2] deals with Tyrosine-protein kinase JAK2 (Homo sapiens, UniProt O60674). Described as §1.
Chain of Tyrosine-protein kinase JAK2 (O60674 whole entry): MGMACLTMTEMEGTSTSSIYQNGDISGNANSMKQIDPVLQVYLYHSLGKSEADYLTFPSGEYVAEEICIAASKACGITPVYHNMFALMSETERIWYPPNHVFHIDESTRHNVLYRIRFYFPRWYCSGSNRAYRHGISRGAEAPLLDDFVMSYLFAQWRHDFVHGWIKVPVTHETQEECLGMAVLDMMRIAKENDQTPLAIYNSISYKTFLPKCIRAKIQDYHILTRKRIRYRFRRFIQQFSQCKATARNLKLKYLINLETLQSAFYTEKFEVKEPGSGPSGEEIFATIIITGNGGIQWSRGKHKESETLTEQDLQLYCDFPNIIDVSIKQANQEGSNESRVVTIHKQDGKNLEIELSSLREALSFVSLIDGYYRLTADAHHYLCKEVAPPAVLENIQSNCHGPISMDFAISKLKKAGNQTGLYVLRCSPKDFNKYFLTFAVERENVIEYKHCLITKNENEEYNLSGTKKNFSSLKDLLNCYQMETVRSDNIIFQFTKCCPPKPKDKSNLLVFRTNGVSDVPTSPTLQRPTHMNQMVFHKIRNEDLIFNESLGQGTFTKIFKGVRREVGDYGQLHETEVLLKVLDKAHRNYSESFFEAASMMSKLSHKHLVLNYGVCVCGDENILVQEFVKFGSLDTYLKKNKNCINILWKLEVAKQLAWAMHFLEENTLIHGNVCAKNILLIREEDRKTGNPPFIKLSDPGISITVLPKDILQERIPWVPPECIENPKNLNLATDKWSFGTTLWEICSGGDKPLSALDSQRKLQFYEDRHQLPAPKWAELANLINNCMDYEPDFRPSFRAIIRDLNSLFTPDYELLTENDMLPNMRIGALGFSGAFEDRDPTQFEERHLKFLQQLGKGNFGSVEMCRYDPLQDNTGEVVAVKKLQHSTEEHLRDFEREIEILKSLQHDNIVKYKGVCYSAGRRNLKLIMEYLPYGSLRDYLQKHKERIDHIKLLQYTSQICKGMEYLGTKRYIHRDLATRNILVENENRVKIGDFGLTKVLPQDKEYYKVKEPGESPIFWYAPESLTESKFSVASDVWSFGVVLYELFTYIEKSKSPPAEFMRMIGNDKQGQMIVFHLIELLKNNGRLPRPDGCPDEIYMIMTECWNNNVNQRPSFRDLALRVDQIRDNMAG
Assay [3] concerns the target T1, Tyrosine-protein kinase JAK3 (Homo sapiens, UniProt P52333).
T1 sequence (P52333 whole entry): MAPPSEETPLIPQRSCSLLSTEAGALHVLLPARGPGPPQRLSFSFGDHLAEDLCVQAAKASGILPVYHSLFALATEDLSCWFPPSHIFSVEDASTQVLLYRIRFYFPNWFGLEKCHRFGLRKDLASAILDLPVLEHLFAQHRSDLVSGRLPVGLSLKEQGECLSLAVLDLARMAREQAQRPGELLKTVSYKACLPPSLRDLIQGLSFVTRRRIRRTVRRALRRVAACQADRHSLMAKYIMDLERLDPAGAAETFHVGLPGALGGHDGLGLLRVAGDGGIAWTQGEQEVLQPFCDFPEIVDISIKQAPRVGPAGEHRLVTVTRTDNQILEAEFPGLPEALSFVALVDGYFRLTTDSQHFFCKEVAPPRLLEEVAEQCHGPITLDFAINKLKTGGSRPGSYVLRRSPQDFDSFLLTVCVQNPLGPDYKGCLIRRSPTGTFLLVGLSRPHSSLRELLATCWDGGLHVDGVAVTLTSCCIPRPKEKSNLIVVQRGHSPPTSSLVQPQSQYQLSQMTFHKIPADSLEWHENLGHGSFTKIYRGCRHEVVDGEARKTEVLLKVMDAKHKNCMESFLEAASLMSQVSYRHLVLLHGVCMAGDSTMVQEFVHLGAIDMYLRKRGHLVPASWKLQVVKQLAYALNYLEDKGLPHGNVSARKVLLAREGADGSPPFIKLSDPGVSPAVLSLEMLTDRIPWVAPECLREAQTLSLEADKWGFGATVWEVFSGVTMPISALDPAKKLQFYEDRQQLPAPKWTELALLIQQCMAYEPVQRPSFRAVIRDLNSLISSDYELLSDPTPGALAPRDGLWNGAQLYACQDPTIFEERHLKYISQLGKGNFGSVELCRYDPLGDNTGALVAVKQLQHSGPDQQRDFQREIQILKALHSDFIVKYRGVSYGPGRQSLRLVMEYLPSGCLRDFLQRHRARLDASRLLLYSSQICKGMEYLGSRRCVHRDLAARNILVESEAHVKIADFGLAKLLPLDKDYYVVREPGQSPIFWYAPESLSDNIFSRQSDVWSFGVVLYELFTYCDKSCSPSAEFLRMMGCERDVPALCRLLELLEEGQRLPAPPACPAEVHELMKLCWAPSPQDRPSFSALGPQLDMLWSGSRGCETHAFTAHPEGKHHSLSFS
The description is as §1.

On to `N#CCNC(=O)c1ccc(-c2nc(Nc3ccc(N4CCC(N5CCOCC5)CC4)cc3)ncc2F)cc1`, for which the values for the IC50 in assay [1], in assay [2] and in assay [3] were 6.7 nM, 4.9 nM and 16.6 nM, respectively.

With `N#CCNC(=O)c1ccc(-c2ccnc(Nc3ccc(N4CCC(C5=NCCN5)CC4)cc3)n2)cc1`, the IC50 in assay [1] was found to be 13 nM; in assay [2], 20 nM; in assay [3] it was 124 nM.

Turning to `N#CCNC(=O)c1ccc(-c2ccnc(Nc3ccc(N4CCC(N5CCOCC5)CC4)cc3)n2)cc1`, the figures for the IC50 in assay [1], in assay [2] and in assay [3] were 11.7 nM, 6.6 nM and 62.3 nM, respectively.
